Entries after “also recorded” stand apart in the source; their conditions may differ.
Legend:
[1] = tested on: S. aureus SA113 (ATCC 35556); experiment: Biofilm formation on polycarbonate discs (crystal violet); format: cell-based; conditions: Staphylococcus aureus, ATCC35556, 6 hours, read-out: inhibition of biofilm formation on polycarbonate surface
Method: (§1) To quantify the amount of biofilm formed on polycarbonate surface, a 13-mm-diameter polycarbonate disc (Thermanox, Nalgene Nunc International, Rochester, N.Y., USA) was placed in a well of a 24-well microtiter plate, followed by the addition of 1 mL aliquot of the diluted bacterial culture. After incubation at 37° C. for a designated period of time, viable cells were washed off the surface of the polycarbonate disc with PBS and counted as described above, while the PBS-washed polycarbonate disc was subjected to crystal violet staining for biofilm quantification as described above.
To determine the effect(s) of (β-PGG upon bacterial growth and biofilm formation, β-PGG in various amounts (final concentration: 0, 1.56, 3.13, 6.25, 12.5, 25 and 50 μM) was added into the culture of S. aureus SA113 during seeding into the wells of polystyrene microtiter plates, followed by incubation at 37° C. for 6 hrs or 24 hrs. Cell growth was determined by measuring the absorbance at 578 nm, and the amount of biofilm formed on polystyrene surface was determined at 595 nm after crystal violet staining. In addition to polystyrene surface, the effect of β-PGG in inhibiting biofilm formation on polycarbonate surface was also examined according to the procedures as described in the preceding section entitled “Materials and methods.”

[2] = tested on: S. aureus SA113Δica (ATCC 35556Δica::tet); experiment: Biofilm formation by ica deletion mutant on polystyrene surface; format: cell-based, Staphylococcus aureus; conditions: 6 hrs
Method: (§2) An overnight bacterial culture was 200-fold diluted with TSBg, and a 200 μL aliquot of the diluted culture was seeded into each well of 96-well polystyrene microtiter plates and incubated at 37° C. for a designated period of time. Cell growth was determined by measuring the absorbance at 578 nm (A578) with a microtiter plate reader (SpectraMax 340, Molecular Devices). After washing with PBS twice to remove suspended cells, the wells were stained with 0.1% (w/v) crystal violet in 10% ethanol and then treated with 30% acetic acid in dH2O, followed by detecting the absorbance at 595 nm (A595) with the microtiter plate reader to quantify the amount of biofilm formed on polystyrene surface.

[3] = tested on: S. aureus SA113Δica (ATCC 35556Δica::tet); experiment: Biofilm formation by ica deletion mutant on polycarbonate surface; format: cell-based, Staphylococcus aureus; conditions: 6 hrs
Method: as §1

S. aureus SA113 [4] = experiment: Biofilm formation on β-PGG/polyaniline-coated polystyrene wells (safranin staining); format: cell-based, Staphylococcus aureus; conditions: polyaniline carrier, 24 hrs
Method: (§3) β-PGG (stock conc.: 8.89 μg/mL in DMSO) in various amounts was evenly mixed with a fixed amount of polyaniline (40 μL, 3 mg/mL in DMSO) so as to provide a 100 μL β-PGG/polyaniline mixture with a final β-PGG concentration of 0.47 μM, 0.94 μM, 1.89 μM, 3.78 μM, 4.73 μM or 5.67 μM. The resultant β-PGG/polyaniline mixture was coated on the inner surfaces of the wells of 96-well polystyrene microtiter plates in an amount of 100 μL per well. After β-PGG coating, the plates were dried in a vacuum chamber, followed by UV sterilization for 30 min. An overnight culture of S. aureus SA113 was 200-fold diluted with TSBg, and a 200 μL aliquot of the diluted culture was seeded into each well of the β-PGG-coated microtiter plates. After culturing at 37° C. for 24 hrs, the wells were washed twice with PBS, and then examined by safranin staining according to a method described earlier (Christine Heilmann et al. (1996), Infect. Immun., 64 (1):277-282), so as to quantify the amount of biofilm formed on the β-PGG-coated polystyrene surface.

S. aureus SA113 [5] = experiment: Biofilm formation on β-PGG/polyaniline-coated silicon rubber discs (safranin staining); format: cell-based; conditions: Staphylococcus aureus, polyaniline carrier, 24 hrs
Method: as §3
Meanwhile, 6-mm diameter silicon rubber discs, which were cut from a sheet of 2-mm thick silicon rubber with a paper punch, were also coated with the resultant β-PGG mixture in an amount of 100 μL per disc. […] After incubation at 37° C. for 24 hrs, each silicon rubber disc was subjected to safranin staining, so as to quantify the amount of biofilm formed thereon.

[6] = tested on: human epithelial and fibroblast cells; experiment: Toxicity to human cells (summary statement); format: cell-based; conditions: concentrations below 50 μM
Method: Human HepG2 cells (ATCC HB-8065) and 293T cells (ATCC CRL-11268) were cultured in Dulbecco's modified Eagle's medium (DMEM) supplemented with 10% (v/v) fetal calf serum. Human MRC-5 cells (ATCC CCL171) and HEp-2 cells (ATCC CCL-23) were cultured in Eagle's minimum essential medium (MEM) supplemented with 10% fetal calf serum. These four human cell lines were seeded into 24-well polystyrene tissue culture plates at a cell density of 1×10^5 cells/500 μL medium per well, respectively. After incubation at 37° C. for 24 hrs, β-PGG was added into each well in various amounts (0, 6.25, 12.5, 25 and 50 μM). After 24 hr treatment of β-PGG, toxicity of β-PGG to these human cell lines was determined using the 3-(4,5-dimethylthiazol-2-yl)-2,5-diphenyltetrazolium bromide (MTT) method (Xiangshu Piao et al. (2008), supra). Additionally, toxicity of β-PGG to the 293T cells was also determined in medium containing 0% and 2% fetal calf serum. Cells treated with DMSO were used as a negative control.

[7] = tested on: S. epidermidis ATCC 35547; experiment: Growth (A578) and biofilm (A595) in polystyrene plates; format: cell-based, Staphylococcus epidermidis; conditions: 12.5 μM β-PGG, 6 hr
Method: (§4) In addition to the above S. aureus strains, S. epidermidis ATCC 35547 and S. epidermidis RP62A (ATCC 35984) were also studied for comparison.
as §2

[8] = tested on: S. epidermidis RP62A (ATCC 35984); experiment: as above; format: cell-based, Staphylococcus epidermidis
Method: as §4, §2

O=C(OC[C@H]1O[C@@H](OC(=O)c2cc(O)c(O)c(O)c2)[C@H](OC(=O)c2cc(O)c(O)c(O)c2)[C@@H](OC(=O)c2cc(O)c(O)c(O)c2)[C@@H]1OC(=O)c1cc(O)c(O)c(O)c1)c1cc(O)c(O)c(O)c1 [β-PGG, 1,2,3,4,6-penta-O-galloyl-β-D-glucopyranose]
inhibition at 6.25 µM ([1]; 6.25 μM): 75%
inhibition at 12.5 µM ([1]; 12.5 μM): 96%
inhibition at 25 µM ([1]; 25 μM): 99%
effect on biofilm formation by the mutant, polystyrene surface ([2]; 1.56 μM): did not affect the biofilm formation
decrease of the amount of biofilm, polystyrene surface ([2]; 3.13 μM): 72%
decrease of the amount of biofilm, polycarbonate surface ([3]; 3.13 μM): 67%
decrease of the amount of biofilm, polycarbonate surface ([3]; 12.5 μM): 96%
biofilm formation on coated polystyrene wells (S. aureus SA113 [4]; coated with β-PGG at 1.9 μM or lower): slightly affected
decrease of the amount of biofilm on coated polystyrene wells (S. aureus SA113 [4]; coated with β-PGG at a concentration higher than 3.8 μM): more than 90%
inhibition at 1.9 µM (S. aureus SA113 [5]; coating with 1.9 μM β-PGG): 62%
inhibition at 5.7 µM (S. aureus SA113 [5]; coating with 5.7 μM β-PGG): 85%
toxicity to human epithelial and fibroblast cells [6]: lacks toxicity; also recorded: not toxic
Growth (A578) ([7]; 0 μM: 0.50 ± 0.01): 0.42 ± 0.01
Biofilm (A595) ([7]; 0 μM: 1.42 ± 0.09): 0.15 ± 0.11
reduction of biofilm formation ([8]; 12.5 μM): 35%
Growth (A578) ([8]; 12.5 μM β-PGG, 6 hr, 0 μM: 0.57 ± 0.09): 0.56 ± 0.09
Biofilm (A595) ([8]; 12.5 μM β-PGG, 6 hr, 0 μM: 6.43 ± 0.04): 4.18 ± 0.54

— patent US9181290B2, “Inhibition of biofilm formation by 1,2,3,4,6-penta-O-galloyl-D-glucopyranose” (CHANG GUNG UNIVERSITY, priority 2011, dated 2015)
